Assay results: ChEMBL document CHEMBL3860091, “Synthesis and activity of newly designed aroxyalkyl or aroxyethoxyethyl derivatives of piperazine on the cardiovascular and the central nervous systems” (Bioorg Med Chem Lett, 2016)

What was measured:
[1] = Antidepressant-like activity in mouse assessed as immobility time at 5 mg/kg, ip by tail suspension test (reference value: 154.2 +/- 10.2 sec); assay type: functional, organism-based
[2] = Antidepressant-like activity in mouse assessed as immobility time at 10 mg/kg, ip by tail suspension test (reference value: 154.2 +/- 10.2 sec); assay type: functional, organism-based
Rattus norvegicus = species on record: Rattus norvegicus; assay: Selectivity ratio of Ki for rat brain cerebral cortex alpha2 adrenergic receptor to Ki for rat brain cerebral cortex alpha1 adrenergic receptor
[3] = target: T1, Adrenergic receptor alpha-1 (Rattus norvegicus, UniProt P15823+P23944+P43140); assay: Antagonist activity at alpha1 adrenergic receptor in rat aorta assessed as inhibition of phenylephrine-induced aortic contraction
T1 sequence (P15823 whole entry): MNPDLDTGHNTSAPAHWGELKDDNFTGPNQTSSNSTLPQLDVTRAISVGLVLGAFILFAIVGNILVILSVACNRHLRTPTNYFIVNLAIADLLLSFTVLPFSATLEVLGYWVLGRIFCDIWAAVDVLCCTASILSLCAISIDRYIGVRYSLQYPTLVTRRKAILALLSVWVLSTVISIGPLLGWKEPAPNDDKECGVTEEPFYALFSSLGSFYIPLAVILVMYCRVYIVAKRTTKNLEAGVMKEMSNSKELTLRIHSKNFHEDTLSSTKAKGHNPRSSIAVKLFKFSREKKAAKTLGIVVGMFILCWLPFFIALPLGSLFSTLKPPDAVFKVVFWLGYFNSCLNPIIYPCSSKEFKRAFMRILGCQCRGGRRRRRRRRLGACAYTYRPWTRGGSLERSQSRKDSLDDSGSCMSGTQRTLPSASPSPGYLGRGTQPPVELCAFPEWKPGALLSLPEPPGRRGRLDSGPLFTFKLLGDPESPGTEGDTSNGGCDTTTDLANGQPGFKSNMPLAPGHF
T1 sequence (P23944 whole entry): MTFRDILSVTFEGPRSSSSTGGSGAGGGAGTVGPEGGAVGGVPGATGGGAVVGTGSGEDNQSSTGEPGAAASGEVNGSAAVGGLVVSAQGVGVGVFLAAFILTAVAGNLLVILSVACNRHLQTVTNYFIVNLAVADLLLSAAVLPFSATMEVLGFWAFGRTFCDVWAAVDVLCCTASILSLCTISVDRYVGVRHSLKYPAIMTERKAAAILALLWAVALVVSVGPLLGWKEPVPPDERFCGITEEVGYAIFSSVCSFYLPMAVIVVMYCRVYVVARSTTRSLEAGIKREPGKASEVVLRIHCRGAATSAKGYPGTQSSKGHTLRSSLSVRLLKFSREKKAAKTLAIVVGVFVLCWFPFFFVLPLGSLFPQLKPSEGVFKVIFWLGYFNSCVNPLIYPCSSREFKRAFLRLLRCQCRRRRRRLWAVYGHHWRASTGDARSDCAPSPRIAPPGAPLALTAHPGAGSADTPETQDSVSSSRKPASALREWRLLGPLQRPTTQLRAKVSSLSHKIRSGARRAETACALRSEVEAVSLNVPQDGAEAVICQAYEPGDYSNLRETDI
T1 sequence (P43140 whole entry): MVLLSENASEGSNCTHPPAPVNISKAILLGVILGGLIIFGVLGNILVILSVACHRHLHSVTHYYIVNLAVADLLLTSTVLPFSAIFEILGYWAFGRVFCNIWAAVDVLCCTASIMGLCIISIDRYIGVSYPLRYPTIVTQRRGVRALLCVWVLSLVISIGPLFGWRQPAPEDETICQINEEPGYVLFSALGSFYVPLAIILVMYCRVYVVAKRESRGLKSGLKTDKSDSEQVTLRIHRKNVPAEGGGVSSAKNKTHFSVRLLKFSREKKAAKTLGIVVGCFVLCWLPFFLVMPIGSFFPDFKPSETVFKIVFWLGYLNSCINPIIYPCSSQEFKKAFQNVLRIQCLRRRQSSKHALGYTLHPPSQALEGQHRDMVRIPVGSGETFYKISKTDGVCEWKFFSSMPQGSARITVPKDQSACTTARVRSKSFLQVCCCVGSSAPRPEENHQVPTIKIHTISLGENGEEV

[4] = target: T1, Adrenergic receptor alpha-1; assay: Displacement of [3H]prazosin from alpha1 adrenergic receptor in rat brain cerebral cortex; assay type: tissue-based

Structure (SMILES)	TIME [1] [h]	TIME [2] [h]	Ratio Ki (Rattus norvegicus)	pA2 [3]	Ki [4] [nM]
CN(C)CCCN1c2ccccc2CCc2ccccc21	0.0363	0.0283			
COc1ccccc1N1CCN(CCCOc2cccc(C)c2C)CC1.Cl			13.3	8.534	2.8
COc1ccccc1N1CCN(CCCOc2c(C)cccc2C)CC1.Cl			142	8.807	2.4
